Experimental data reported in PMC4604124, “In Vitro Characterization of the Pharmacological Properties of the Anti-Cancer Chelator, Bp4eT, and Its Phase I Metabolites” (PLoS ONE, 2015).
“And” between values parts separate entries of the source, which are not always exact repeats. Equal values may be shown once.

Assays:
caspase 8 = test: Caspase activity, luminescent kit, caspase 8; assay type: cell-based, human; details: for Caspase 8 activity, % of the control: 100 nM, MCF-7, corrected for viability; for kaspáza 8, průměry (means of raw signal): mean of 4 experiments; for kaspáza 8, raw signal / kaspáza 8, signal / viabilita: individual experiments by date
Protocol: To assess the effect of the compounds on caspase activity, MCF-7 cells were incubated with 100 nM Bp4eT or its metabolites for 3, 24 or 72 h/37°C in 96-well plates, as described above. The cells were then lysed by adding 100 μL of cold lysis buffer (100 mM HEPES, 10 mM CHAPS, 10 mM D-L-dithiothreitol, pH 7.4) to 100 μL of medium in each well. Lysates were immediately frozen at -80°C. Thawed lysates were used to assess caspase activity using luminescent kits for caspases 3/7, 8 and 9 (Promega, Madison, WI, USA). The luminescence was measured using the Tecan Infinite 200M plate reader. Caspase activity in the experimental groups was corrected according to the cellular viability of each group and expressed as a percentage of activity of the untreated control (100%).

[1] = Ascorbate oxidation assay (redox activity of iron complexes); assay type: biochemical;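 as to %Fe 30min (ascorbate oxidation, Fe 100%), průměr: IBE 3 means excess free chelator over iron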;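 as to %Fe 30min (ascorbate oxidation, Fe 100%): IBE 3 means excess free chelator over iron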;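 as to %Fe 30min (ascorbate oxidation, Fe = 100%), průměr (mean): IBE 1 means iron-binding equivalents giving fully coordinated iron-chelator complexes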;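 as to %Fe 30min (ascorbate oxidation, Fe = 100%), single replicates: IBE 1 means iron-binding equivalents giving fully coordinated iron-chelator complexes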;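 as to %Fe 30min: ascorbate oxidation as % of the Fe control (Fe 100%): IBE 0.1 means iron-binding equivalents with iron in excess over chelator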;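 as to Change of absorbance, odečet 0 (time 0 subtracted), čas 10, průměr: IBE 3 means excess free chelator over 10 µM FeCl3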;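 as to Change of absorbance, odečet 0 (time 0 subtracted), čas 10: IBE 3 means excess free chelator over 10 µM FeCl3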;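 as to Change of absorbance, odečet 0 (time 0 subtracted), čas 20, průměr: 100 µM ascorbate with 10 µM FeCl3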;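 as to Change of absorbance, odečet 0 (time 0 subtracted), čas 20: 100 µM ascorbate with 10 µM FeCl3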;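 as to Change of absorbance, odečet 0 (time 0 subtracted), čas 30, průměr: 100 µM ascorbate with 10 µM FeCl3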;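 as to Change of absorbance, odečet 0 (time 0 subtracted), čas 30: 100 µM ascorbate with 10 µM FeCl3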;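 as to odečet 0 (reading minus time 0 reading) at čas 20, single replicates: IBE 1 means fully coordinated iron chelator complexes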;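 as to odečet 0 (reading minus time 0 reading) at čas 30, průměr (mean): IBE 1 means fully coordinated iron chelator complexes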;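 as to odečet 0 (reading minus time 0 reading) at čas 30, single replicates: IBE 1 means fully coordinated iron chelator complexes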;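 as to raw reading at čas 20 (time 20), průměr (mean): IBE 1 means fully coordinated iron chelator complexes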;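 as to raw reading at čas 20 (time 20), single replicates: IBE 1 means fully coordinated iron chelator complexes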;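 as to raw reading at čas 30 (time 30), průměr (mean): IBE 1 means fully coordinated iron chelator complexes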;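 as to raw reading at čas 30 (time 30), single replicates: IBE 1 means fully coordinated iron chelator complexes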
[2] = system: cancer cells (HL-60, MCF-7, HCT116, A549) and non-cancerous cells (H9c2, 3T3); test: MTT cytotoxicity assay, summary over the cell line panel; assay type: cell-based
Protocol: For cytotoxicity experiments, cancer cells were seeded at a density of 5,000 (MCF-7), 10,000 (HL-60) or 2,000 cells/well (HCT116 and A549) in 96-well plates (TPP) for 24 h/37°C prior to the addition of examined agents. The non-cancerous cells, 3T3 and H9c2 cells, were cultured for 24 h/37°C in 96-well plates at a density of 10,000 cells/well, the medium was then changed to serum- and pyruvate-free DMEM (Sigma-Aldrich) and incubated with the cells for another 24 h/37°C. The cytotoxic effects of Bp4eT and its metabolites were studied at different concentrations after a 72 h/37°C incubation. In order to aid the dissolution of the lipophilic ligands, 0.1% dimethyl sulfoxide (v/v) (DMSO; Sigma-Aldrich) was present in the culture medium of all groups. At this concentration, DMSO had no effect on cellular proliferation or viability.
The viability of cells were determined using an MTT assay (Sigma-Aldrich) according to previously established methods. The optical density of soluble MTT was measured at λ = 570 nm, subtracting the λ = 690 nm background using a Tecan Infinite 200M plate reader (Tecan Group, Männedorf, Switzerland). The viability or proliferation of experimental groups was expressed as a percentage of the untreated controls (100%).
SigmaStat for Windows 3.5 (Systat Software, San Jose, CA, USA) statistical software package was utilized to analyze results. The data are expressed as the mean ± SD of a given number of experiments. Statistical significance was determined using a one-way ANOVA with a Bonferroni post-hoc test or Student’s t-test. The results were considered to be statistically significant when p < 0.05. The IC50 values were calculated using CalcuSyn 2.0 software (Biosoft, Cambridge, UK). Cell cycle analysis was evaluated using MultiCycle AV Software (Phoenix Flow Systems, San Diego, CA, USA).

[3] = sheet IBE 1, time 10, replicates
[4] = sheet IBE 1, time 20, replicates
[5] = sheet IBE 1, time 30, replicates

With `CCNC(=S)NN=C(c1ccccc1)c1ccccn1` [Bp4eT, 2-benzoylpyridine 4-ethyl-3-thiosemicarbazone] the “Caspase 8 activity, % of the control” value (caspase 8; 24 h) was 125%, the “Caspase 8 activity, % of the control” value (caspase 8; 72 h) was 189% and the “kaspáza 8, % kontroly” value (caspase 8; 3 hodiny (3 h), % of control) was 95.86%. The “kaspáza 8, průměry (means of raw signal)” value (caspase 8; 3 hodiny (3 h)) was 1343.75, the “kaspáza 8, raw signal” value (caspase 8; 3 hodiny) was 2059 and 1157 and 1253.5 and 905.5 and the “kaspáza 8, raw signal, průměry” value (caspase 8; 3 hodiny, mean) was 1343.75. For the same compound, the “kaspáza 8, % kontroly” value (caspase 8; 3 hodiny, mean, normalised to viability) was 100.78 % kontroly, the “kaspáza 8, signal / viabilita” value (caspase 8; 3 hodiny, normalised to viability) was 21.3728 and 12.0099 and 13.0116 and 9.399 and the “kaspáza 8, signal / viabilita, průměry” value (caspase 8; 3 hodiny, normalised to viability, mean) was 13.9484. The “kaspáza 8, % kontroly” value (caspase 8; 24 hodin (24 h), % of control) was 66.28%, the “kaspáza 8, průměry (means of raw signal)” value (caspase 8; 24 hodin (24 h)) was 1049.5 and the “kaspáza 8, raw signal” value (caspase 8; 24 hodin) was 1182.5 and 845.5 and 1242.5 and 927.5. The “kaspáza 8, raw signal, průměry” value (caspase 8; 24 hodin, mean) was 1049.5, the “kaspáza 8, % kontroly” value (caspase 8; 24 hodin, mean, normalised to viability) was 125.02 % kontroly and the “kaspáza 8, signal / viabilita” value (caspase 8; 24 hodin, normalised to viability) was 22.3747 and 15.9981 and 23.51 and 17.5497. For the same compound, the “kaspáza 8, signal / viabilita, průměry” value (caspase 8; 24 hodin, normalised to viability, mean) was 19.8581, the “kaspáza 8, % kontroly” value (caspase 8; 72 hodin (72 h), % of control) was 50.72% and the “kaspáza 8, průměry (means of raw signal)” value (caspase 8; 72 hodin (72 h)) was 3576.88. For the same compound, the “kaspáza 8, raw signal” value (caspase 8; 72 hodin) was 5283 and 3499.5 and 2666 and 2859, the “kaspáza 8, raw signal, průměry” value (caspase 8; 72 hodin, mean) was 3576.88 and the “kaspáza 8, % kontroly” value (caspase 8; 72 hodin, mean, normalised to viability) was 188.91 % kontroly. The “kaspáza 8, signal / viabilita” value (caspase 8; 72 hodin, normalised to viability) was 195.017 and 129.181 and 98.4127 and 105.537, the “kaspáza 8, signal / viabilita, průměry” value (caspase 8; 72 hodin, normalised to viability, mean) was 132.037 and the “%Fe 30min: ascorbate oxidation as % of the Fe control (Fe 100%)” value ([1]; IBE 0.1, 30 min, mean (průměr)) was 114.3%. The “Change of absorbance after subtraction of time 0 (odečet 0)” value (“Change of absorbance … (odečet 0)” below) ([1]; IBE 0.1, time 10, mean (průměr)) was -0.04348, the “Change of absorbance … (odečet 0)” value ([1]; IBE 0.1, time 20, mean (průměr)) was -0.0765 and the “Change of absorbance … (odečet 0)” value ([1]; IBE 0.1, time 30, mean (průměr)) was -0.108. The “Absorbance (ascorbate, λ = 265 nm)” value ([1]; IBE 0.1, čas 0 (time 0), mean (průměr)) was 0.839, the “Absorbance (ascorbate, λ = 265 nm)” value ([1]; IBE 0.1, čas 10 (time 10), mean (průměr)) was 0.7956 and the “Absorbance (ascorbate, λ = 265 nm)” value ([1]; IBE 0.1, čas 20 (time 20), mean (průměr)) was 0.7625. For the same compound, the “Absorbance (ascorbate, λ = 265 nm)” value ([1]; IBE 0.1, čas 30 (time 30), mean (průměr)) was 0.731, the “Ascorbate oxidation, % of the control” value ([1]; IBE 1) was “significant (p < 0.001) increase” and the “Ascorbate oxidation, % of the control” value ([1]; IBE 3) was “significant (p < 0.001) increase”. For the same compound, the “%Fe 30min (ascorbate oxidation, Fe = 100%), průměr (mean)” value ([1]; sheet IBE 1, 30min, Fe 100%, mean) was 274.4%, the “%Fe 30min (ascorbate oxidation, Fe = 100%), single replicates” value ([1]; sheet IBE 1, 30min, Fe 100%, replicates) was 326.6% and 305.9% and 307.7% and 264.1% and 243.3% and 218.6% and 291.9% and 257% and 254.6% and the “raw reading at čas 0 (time 0), průměr (mean)” value ([1]; sheet IBE 1, time 0, mean of 9 readings) was 0.8081. For the same compound, the “raw reading at čas 0 (time 0), single replicates” value ([1]; sheet IBE 1, time 0, replicates of 2014-03-24 (two runs) and 2014-03-25) was 0.8198 and 0.8003 and 0.8337 and 0.8268 and 0.8308 and 0.7872 and 0.7839 and 0.7637 and 0.8272, the “odečet 0 (reading minus time 0 reading) at čas 10, průměr (mean)” value ([1]; sheet IBE 1, time 10, mean) was -0.1075 and the “raw reading at čas 10 (time 10), průměr (mean)” value ([1]; sheet IBE 1, time 10, mean of 9 readings) was 0.7006. For the same compound, the “odečet 0 (reading minus time 0 reading) at čas 10, single replicates” value [1, 3] was -0.1527 and -0.1456 and -0.1532 and -0.1025 and -0.07863 and -0.05463 and -0.1235 and -0.07821 and -0.07861, the “raw reading at čas 10 (time 10), single replicates” value [1, 3] was 0.681 and 0.6812 and 0.6776 and 0.6847 and 0.7053 and 0.7091 and 0.7037 and 0.7416 and 0.7217 and the “odečet 0 (reading minus time 0 reading) at čas 20, průměr (mean)” value ([1]; sheet IBE 1, time 20, mean) was -0.1811. For the same compound, the “raw reading at čas 20 (time 20), průměr (mean)” value ([1]; sheet IBE 1, time 20, mean of 9 readings) was 0.627, the “odečet 0 (reading minus time 0 reading) at čas 20, single replicates” value [1, 4] was -0.2337 and -0.2156 and -0.2203 and -0.1671 and -0.1458 and -0.1256 and -0.1987 and -0.1601 and -0.163 and the “raw reading at čas 20 (time 20), single replicates” value [1, 4] was 0.6 and 0.6112 and 0.6105 and 0.6201 and 0.6381 (2×) and 0.6284 and 0.6597 and 0.6373. The “odečet 0 (reading minus time 0 reading) at čas 30, průměr (mean)” value ([1]; sheet IBE 1, time 30, mean) was -0.2442, the “raw reading at čas 30 (time 30), průměr (mean)” value ([1]; sheet IBE 1, time 30, mean of 9 readings) was 0.5639 and the “odečet 0 (reading minus time 0 reading) at čas 30, single replicates” value [1, 5] was -0.2822 and -0.2643 and -0.2658 and -0.2282 and -0.2102 and -0.1888 and -0.2754 and -0.2425 and -0.2402. For the same compound, the “raw reading at čas 30 (time 30), single replicates” value [1, 5] was 0.5515 and 0.5624 and 0.5649 and 0.5591 and 0.5737 and 0.5749 and 0.5518 and 0.5772 and 0.56, the “%Fe 30min (ascorbate oxidation, Fe 100%), průměr” value ([1]; sheet IBE 3, 30min, Fe alone = 100%, mean (průměr) of the 9 replicates) was 278.6% and the “%Fe 30min (ascorbate oxidation, Fe 100%)” value ([1]; sheet IBE 3, 30min, Fe alone = 100%, single replicates) was 323.8% and 304.1% and 296.1% and 279.4% and 257.4% and 253.6% and 291.2% and 261% and 240.7%. The “Change of absorbance, odečet 0 (time 0 subtracted), čas 10, průměr” value ([1]; sheet IBE 3, time 10 minus time 0, mean (průměr)) was -0.09469, the “Change of absorbance, odečet 0 (time 0 subtracted), čas 10” value ([1]; sheet IBE 3, time 10 minus time 0, single replicates) was -0.1148 and -0.1115 and -0.1009 and -0.09722 and -0.09232 and -0.09642 and -0.1047 and -0.06955 and -0.06465 and the “Change of absorbance, odečet 0 (time 0 subtracted), čas 20, průměr” value ([1]; sheet IBE 3, time 20 minus time 0, mean (průměr)) was -0.1775. For the same compound, the “Change of absorbance, odečet 0 (time 0 subtracted), čas 20” value ([1]; sheet IBE 3, time 20 minus time 0, single replicates) was -0.2173 and -0.2064 and -0.1913 and -0.1735 and -0.1668 and -0.1578 and -0.1895 and -0.1498 and -0.1449, the “Change of absorbance, odečet 0 (time 0 subtracted), čas 30, průměr” value ([1]; sheet IBE 3, time 30 minus time 0, mean (průměr)) was -0.2575 and the “Change of absorbance, odečet 0 (time 0 subtracted), čas 30” value ([1]; sheet IBE 3, time 30 minus time 0, single replicates) was -0.3006 and -0.2823 and -0.2749 and -0.2593 and -0.2389 (2×) and -0.2354 and -0.2666 and -0.2203. For the same compound, the IC50 ([2]; HL-60, MCF-7 and HCT116 cells, 72 h, read-out: IC50, range over cell lines) was 3 to 15 nM and the “Therapeutic indices, range” value ([2]; towards HL-60, MCF-7 and HCT116 cancer cells) was 34.9–436.3.
